The values that follow come from PMC3435407, “αA-Crystallin–Derived Mini-Chaperone Modulates Stability and Function of Cataract Causing αAG98R-Crystallin” (PLoS ONE, 2012).

Non-standard residues stand in square brackets, D forms with d. No end group written: not given here. *: point of attachment. Biotin = O=C1N[C@H]2[C@H](CS[C@H]2CCCCC(=O)*)N1; Bpa = N[C@@H](Cc1ccc(C(=O)c2ccccc2)cc1)C(=O)O

The test system of data set [1] is α-crystallin. Further details: method as in 2 sources, one per row (each row's own in cited_ref): ref [43] = [43]; PMID 8549682; doi:10.1016/s0014-4835(05)80136-8; 43 Sharma KK , Ortwerth BJ ( 1995 ) Effect of cross-linking on the chaperone-like function of alpha crystallin . Exp Eye Res 61 : 413 – 421 . 8549682 10.1016/s0014-4835(05)80136-8 ||| ref [44] = [44]; PMID 15199188; doi:10.1073/pnas.0403532101; 44 Kantorow M , Hawse JR , Cowell TL , Benhamed S , Pizarro GO , et al ( 2004 ) Methionine sulfoxide reductase A is important for lens cell viability and resistance to oxidative stress . Proc Natl Aca. To be noted: α-crystallin in water-insoluble fraction of lens proteins; ref [43]; cited from earlier work.

The subject of data set [2] is wild-type α-crystallin. To be noted: modulator in 10- to 30-fold higher concentrations than α-crystallin; ref [39]–[42]; cited from earlier work. An excerpt: In those studies the modulator was used in 10- to 30-fold higher concentrations than the α-crystallin [39]–[42] and the conformational changes in α-crystallin in the presence of the modulator was considered to be responsible for the activity enhancement.

The target in data set [3] is T1, αAG98R (Homo sapiens, UniProt P02489, G98R).
T1 construct: the full-length human αA-crystallin cDNA cloned into pET-23d (+) vector; made in house; host or cells: E. coli BL21(DE3)pLysS
Nature of the data set: Photo-crosslinking, SDS-PAGE and western blot. In kind it is binding. To be noted: for covalent association with αAG98R subunits: photolyzed, SDS-PAGE and western blot. Here is the method:
(§1) Biotinyl-αA-mini-chaperone-Bpa peptide (200 µg) was incubated with 200 µg of αAG98R crystallin in buffer, pH 7.2, at 37°C for 1 hr. Subsequently, the sample was filtered in a Microcon 10 kDa cut of filter (Millipore, Bedford, MA) to remove free peptides. The sample was photolyzed for 30 min, at 4°C, using a UV lamp (365 nm) held at a distance of 7 cm from the sample. The photolyzed sample was desalted using C18 zip tip spin columns (Thermo Fisher Scientific, Rockford, IL), as per the manufacturer's protocol, and the bound protein was eluted in 70% acetonitrile. […] The UV-photolyzed sample was subjected to SDS-PAGE and western blot analysis using antibody against biotin.
Figure 6 SDS-PAGE analysis of αAG98R cross-linked with biotinylated Bpa-mini-αA. Incubation, photolysis and SDS-PAGE (lanes 1–3), western blot (lanes 4 and 5) analysis were performed as described under methods. Lane 1, photolysed αAG98R; lane 2, αAG98R incubated with biotinyl-Bpa mini-αA and photolyzed; lane 3 mol wt markers. […] This band was absent in non-photolyzed samples (data not shown).Lanes 4 and 5 western blot of lanes 1 and 2 respectively. […] The figure is representative of 3 independent experiments.

The target of data set [4] is T1, αAG98R. Nature of the data set: Photo-crosslinking, MALDI-TOF/TOF MS. In kind it is binding. The following applies: photolyzed; restated in the discussion. As for the experimental part:
as §1
Figure 7 MALDI-TOF MS spectrum of αAG98R photolyzed after incubation with or without biotinyl-Bpa-mini-αA-crystallin. A, αAG98R after photolysis; B, αAG98R photolyzed after incubation with biotinyl-Bpa mini-αA. The αAG98R-Bpa mini-αA complex with m/z 22592 is indicated by an arrow. Mass spectrometric analysis confirms the 1∶1 interaction of mini-chaperone with αAG98R monomer. The figure is representative of 3 independent experiments.

Data set [5] concerns alcohol dehydrogenase (ADH). Nature of the data set: ADH aggregation assay, heat-denatured (chaperone-like activity). To be noted: peptide alone, 43°C. In kind it is biochemical. As for the experimental part: (§2) Aggregation assay was performed in 1 ml 50 mM phosphate buffer containing 150 mM NaCl and 100 mM EDTA at 43°C. The chaperone activity of Biotin-[…](Bpa)[…] as well as a Pro-substituted mini-chaperone ([…]) was also measured by ADH aggregation assay. The extent of aggregation was estimated by monitoring the light scattering at 360 nm using a Shimadzu UV-VIS spectrophotometer equipped with a temperature-controlled multi-cell transporter.
Similar to our earlier observation, αAG98R suppressed ADH aggregation during the early part of the 2 hr assay but the assay mixture started to scatter light after 60 min (Figure 5A).
Figure 5 Effect of the addition of αA-crystallin–derived mini-chaperone on the chaperone-like activity of αAG98R against ADH aggregation. […] The figures represent the typical data obtained multiple times with WT-αA-crystallin and stabilized αAG98R.

Data set [6] concerns the target T1, αAG98R. Nature of the data set: Recovery of soluble αAG98R after incubation at 43°C (gel filtration, TSK G5000PWXL). In kind it is biochemical. To be noted: 75 µg αAG98R. Here is the method:
(§3) Samples were injected on to a TSK G5000PWXL (Tosoh Bioscience, Montgomeryville, PA) size-exclusion column equilibrated with 50 mM sodium phosphate buffer containing 150 mM NaCl (pH 7.2). The flow rate was set to 0.75 ml/min. The column was attached to a HPLC system connected with UV and refractive index detectors and coupled to a static multi-angle laser light scattering (DAWN-EOS) and dynamic quasi-elastic light scattering detectors (Wyatt Technology, Santa Barbara, CA). The molar mass (Mw), hydrodynamic radius (Rh) and polydispersity index (PDI) were determined using ASTRA (5.3.2) software developed by Wyatt Technology.
(§4) We know from previous studies thatαA-mini-chaperone suppresses the aggregation and precipitation of denaturing proteins, [29], [30]. […] The samples were centrifuged to remove any precipitate formed during incubation, and the supernatant was analyzed by TSKG5000 PWXL gel filtration column connected to a multi-angle laser light scattering (DAWN-EOS) and dynamic quasi-elastic light scattering detectors. […] The first peak corresponded to the oligomeric form of αAG98R, whereas the second peak represented dissociated subunits of the mutant protein. […] The hydrodynamic radius (Rh) of the stabilized αAG98R increased from 15.3 nm to 16.4 nm, consistent with increase in molar mass.

Data set [7] has as its target T1, αAG98R. In words: αAG98R recovery with different amounts of mini-chaperone (43°C, 30 min). In kind it is binding. The following applies: 1∶2 ratio (mol/mol) of αAG98R to mini-αA, 10 µM αAG98R.
Data set [8] concerns the target T1, αAG98R. Nature of the data set: Thermal aggregation monitored by light scattering at 360 nm. The following applies: 750 µg αAG98R, 1.7∶1 (mol/mol) ratio, 90 min, representative of 3 experiments. Type of data set: biochemical. As for the experimental part: Light scattering was monitored at 360 nm for 90 min using a spectrophotometer. […] Because αAG98R is a structurally perturbed protein [20], [21], we hypothesize that the mini-chaperone interacted with mutant αAG98R and prevented aggregation and light scattering. […] The aggregation and precipitation of αAG98R also occurred at 37°C but at a slower rate. […] Nearly 80% of αAG98R was recovered when the incubation was carried out with 1∶2 ratio (mol/mol) of αAG98R to mini-αA-.
The protein samples (750 µg) were incubated in 1 ml PO4 buffer, pH 7.2 at 43°C and light scattering was continually monitored at 360 nm for 90 min in a spectrophotometer. […] The figure is representative of 3 independent experiments.

In data set [9] the test system is alcohol dehydrogenase (ADH). In words: EDTA-induced ADH aggregation assay at 37°C. To be noted: 250 µg ADH, 50 µg peptide, representative of two experiments. Type of data set: biochemical. Here is the method: as §2
The EDTA-induced aggregation of ADH assay was performed at 37°C as described under methods. In each experiment 250 µg of ADH was used. […] The figure is representative of two independent experiments. (TIF) Click here for additional data file.

In data set [10] the test system is ADH, citrate synthase, insulin and α-lactalbumin. Further details: method as in PMID 10660525, PMID 11350603, PMID 11563692. The following applies: ref [26], [29], [30]; cited from earlier work.
For data set [11], the system named is αAG98R / wild-type αA-crystallin oligomer. In words: Multi-angle/quasi-elastic light scattering of αA-crystallin oligomers. Type of data set: physicochemical, human. The following applies: 43°C, wild-type protein. Here is the method: as §3, §4
For data set [12], the system named is αAG98R / wild-type αA-crystallin. In words: Far-UV CD thermal denaturation (218 nm). In kind it is physicochemical, human. To be noted: 100 µg/400 µl, 10 mM phosphate pH 7.2, listed as αA-crystallin mini-chaperone = αAG98R incubated with it. As for the experimental part: Circular dichroism (CD) spectropolarimeter, J815 (Jasco, Easton, MD), equipped with a temperature control system, was employed to record CD spectra. Far-UV CD measurements were carried out over the wavelength range of 190 to 250 nm with bandwidth 0.5 nm, scan speed 10 nm/min using 0.1-cm path length cuvettes. Protein samples were prepared in 10 mM sodium phosphate buffer (pH 7.2). Spectra are the average of five scans. Buffer signal was subtracted prior to reporting the data. Thermal denaturation data were collected from 25°C to 45°C, with protein concentration of 100 µg/400 µl. Thermal denaturation experiments were performed with a heating rate of 1°C/min, and CD signals at 218 nm were used to determine transition midpoints. Near-UV CD spectra were recorded using a protein sample of 1.5 mg/ml in the buffer used for far-UV studies.
Proteins, 100 µg, were prepared in 400 µl of10 mM phosphate buffer, pH 7.2, and the sample temperatures were slowly raised from 25 to 48°C in 2°C steps, equilibrated for 5 min at each temperature prior to far-UV CD measurement. Molar ellipticity changes at 218 nm were plotted to determine relative stability of samples. […] The spectra were recorded using a protein sample of 1.5 mg/ml. The profile shown is the average of 5 scans.

T1 sequence (P02489 whole entry G98R): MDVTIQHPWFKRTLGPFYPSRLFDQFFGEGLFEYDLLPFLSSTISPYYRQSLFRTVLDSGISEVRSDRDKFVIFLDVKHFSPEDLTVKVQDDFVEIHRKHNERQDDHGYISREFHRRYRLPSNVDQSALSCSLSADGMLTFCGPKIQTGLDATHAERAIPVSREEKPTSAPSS

`O[C@@H](CS)[C@@H](O)CS` (racemic) [dithiothreitol (DTT), dithiothreitol]: the “restoration of chaperone activity by DTT” value in data set [1] was “restores some of the lost chaperone activity”. Consider `Nc1ncnc2c1ncn2[C@@H]1O[C@H](COP(=O)(O)OP(=O)(O)OP(=O)(O)O)[C@@H](O)[C@H]1O` [ATP], for which the “modulation of wild-type α-crystallin chaperone activity” value (“modulation” for short) in [2] is given as “Modulation of wild-type α-crystallin chaperone activity”. For the compound `N=C(N)NN` [aminoguanidine], the “modulation” value in data set [2] is “Modulation of wild-type α-crystallin chaperone activity”. In the case of `N=C(N)NCCC[C@H](N)C(=O)O` [arginine], in data set [2], the “modulation” value is on record as “Modulation of wild-type α-crystallin chaperone activity”. Take `N[C@@H](CCC(=O)N[C@@H](CS)C(=O)NCC(=O)O)C(=O)O` [glutathione]: in data set [2], the “modulation” value is listed as “Modulation of wild-type α-crystallin chaperone activity”. In the case of “Biotin-DFVIFLDVKH[Bpa]SPEDLTVK [biotinyl-Bpa-mini-chaperone] [listing 1 of 2 here]”, the “αAG98R photo-crosslinked (image analysis of stained gel)” value in data set [3] (200 µg peptide + 200 µg αAG98R, pH 7.2, 37°C, 1 hr, photolysis 365 nm 30 min 4°C, representative of 3 experiments) was “about 10%”. In addition, the “covalent association with αAG98R subunits” value in data set [3] (representative of 3 experiments) was “covalent association of αA-mini-chaperone with αAG98R subunits was observed”; in data set [3] (representative of 3 experiments, listed as biotinyl-Bpa mini-αA), “confirms the binding of a mini-chaperone to a subunit of αAG98R”. Besides, the “Bpa-peptide incorporated into αAG98R subunit” value in data set [4] is reported as “about 10%”. On to “Biotin-DFVIFLDVKH[Bpa]SPEDLTVK [biotinyl-Bpa-mini-chaperone] [listing 2 of 2 here]”, for which the figures for the “chaperone activity of Bpa peptide (heat-denatured ADH)” value in data set [5] and in data set [5] (listed as biotin-DFVIFLDVKH(benzoylphenylalanine)SPEDLTVK) were “retained chaperone activity” and “active in suppressing the aggregation of heat-denatured ADH”, respectively. Further, the “binding stoichiometry (SDS-PAGE/western blot)” value in [3] (photolyzed mixture) is reported as “one peptide was incorporated into one subunit of αAG98R”.

For the compound DFVIFLDVKHFSPEDLTVK [αA-mini-chaperone], the “mutant protein recovered in soluble form (percent)” value in [6] (with or without 10 µg αA-mini-chaperone, 1 hr, listed as αAG98R = absence of mini-chaperone) was found to be 79%. Further, the “recovery of αAG98R” value in data set [7] was approximately 80%. In the case of “DFVPFLDVKHFSPEDLTVK [Pro-substituted mini-chaperone]”, in data set [6] (gel filtration TSK G5000PWXL), the “effect on monomeric peak / dissociation / precipitation of αAG98R” value is given as “did not prevent the precipitation of αAG98R”. The “suppression of αAG98R aggregation, 43°C” value in data set [8] is given as “failed to suppress precipitation of the mutant protein”. For the same compound, the “chaperone activity of Pro-substituted peptide (EDTA-induced ADH aggregation)” value is “no chaperone activity” in data set [9] and “Pro-substitution abolishes the chaperone activity of mini-chaperone” in data set [9] (listed as αA-mini-chaperone (pro)). On to “KFVIFLDVKHFSPEDLTVK [αA70-88, 19 amino acid peptide representing the chaperone site in αA-crystallin]”, for which the “suppression of aggregation of denaturing ADH, citrate synthase, insulin and α-lactalbumin; chaperone-like function” value in data set [10] is “functions like a molecular chaperone”. As to “wild-type αA-crystallin: recombinant wild-type human αA-crystallin expressed in E. coli”, in data set [11], the “oligomeric size and molar mass change upon incubation” value was “oligomeric size and molar mass did not change”. In addition, the “temperature up to which / above which 218 nm ellipticity is stable / changes” value in data set [12] was 40 °C.
